Consider nine compounds from patent US20060241122A1, “Combination therapy for the treatment of neoplasms” (priority 2003, published 2006).

One may read the inhibition as the drop in the measured response relative to a control, in per cent.

Test [1] deals with human melanoma SKMEL-28 cells. Nature of the test: Anti-proliferation assay (Alamar Blue metabolism), SKMEL-28 cells. The class given is cell-based. The source says: (§1) The combination matrices were used immediately and discarded.
Background: Resazurin is reduced to fluorescent resorufin, in cell work by metabolically active cells.

Test [2] has as its system human pancreatic cancer PANC1 cells. Nature of the test: Anti-proliferation assay (Alamar Blue metabolism), PANC1 cells. The class given is cell-based. The note with it: PANC1 cells.
From the text: as §1

In test [3] the test system is human prostate cancer DU145 cells. Nature of the test: Anti-proliferation assay (Alamar Blue metabolism), DU145 cells. It counts as cell-based. The note with it: Homo sapiens, DU-145, DU145 cells.
From the text: as §1

The subject of test [4] is human colorectal carcinoma HCT116 cells. Nature of the test: Anti-proliferation assay (Alamar Blue metabolism), HCT116 cells.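 Also: cells in 384-well plates exposed to compound combination matrices for 72 h, Alamar Blue fluorescence read (excitation 530 nm), inhibition calculated against mean of vehicle-only wells.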
Experimental: Stock solutions (1000×) of each compound were prepared in DMSO and stored at −20° C. Master stock plates of 2-fold or 4-fold serial dilutions of individual compounds were prepared in 384-well plates. Combination matrices of test compounds were generated from these master stock plates by dilution into growth media described above. […] The combination matrices were used immediately and discarded.
The anti-proliferation assays were performed in 384-well plates. […] Cells were diluted in culture media such that 3,000 SKMEL-28 cells, or 1,500 cells for all the other cell lines, were delivered in 35 μl of media into each assay well. Assay plates were incubated for 16-24 hours 37° C.±0.5° C. with 5% CO2. After incubation, 4.5 μl of 10× stock solutions from the combination matrices were added to 40 μl of culture media. Assay plates were further incubated for 72 hours at 37° C.±0.5° C. with 5% CO2. […] Alamar Blue metabolism was quantified by the amount of fluorescence intensity 3.5-5.0 hours after addition. Quantification, using an LJL Analyst AD reader (LJL Biosystems), was taken in the middle of the well with high attenuation, a 100 msec read time, an excitation filter at 530 nm, and an emission filter at 575 nm. For some experiments, quantification was performed using a Wallac Victor^2 reader. Measurements were taken at the top of the well with stabilized energy lamp control; a 100 msec read time, an excitation filter at 530 nm, and an emission filter at 590 nm.
Test [5] relates to non-small cell lung carcinoma A549 cells. Nature of the test: Anti-proliferation assay (Alamar Blue metabolism), A549 cells. The class given is cell-based. The note with it: A549 cells. Here is the method: Inhibition of proliferation was measured by anti-proliferation assay as described below after incubation with the test compound(s) for 72 hours.
as §1
Cells were diluted in culture media such that 3,000 SKMEL-28 cells, or 1,500 cells for all the other cell lines, were delivered in 35 μl of media into each assay well. Assay plates were incubated for 16-24 hours 37° C.±0.5° C. with 5% CO2. […] Assay plates were further incubated for 72 hours at 37° C.±0.5° C. with 5% CO2. […] Alamar Blue metabolism was quantified by the amount of fluorescence intensity 3.5-5.0 hours after addition.
The percent inhibition (% I) for each well was calculated using the following formula: % I=[(avg. untreated wells−treated well)/(avg. untreated wells)]×100 The average untreated well value (avg. untreated wells) is the arithmetic mean of 40 wells from the same assay plate treated with vehicle alone.

Where [6] appears, read: with addition of 7 μM itraconazole.
Where [7] appears, read: Homo sapiens, HCT-116, read-out: Percent inhibition of Alamar Blue Metabolism, lovastatin 0.0 μM, econazole […].
Where [8] appears, read: Homo sapiens, HCT-116, read-out: Percent inhibition of Alamar Blue Metabolism, lovastatin […], econazole 0.0 μM.
Setting [9] is: Homo sapiens, HCT-116, read-out: Percent inhibition of Alamar Blue Metabolism, tioconazole 0.0 μM, lovastatin […].
Setting [10] is: Homo sapiens, HCT-116, read-out: Percent inhibition of Alamar Blue Metabolism, tioconazole […], lovastatin 0.0 μM.

Structures are written as SMILES. Like-named read-outs stand apart in the source and are kept apart here.

For `CC(C)n1c(/C=C/C(O)CC(O)CC(=O)O)c(-c2ccc(F)cc2)c2ccccc21` (stereo not shown) [Fluvastatin, fluvastatin], the inhibition at 3 µM in test [1] (Homo sapiens, SK-MEL-28, SKMEL-28 cells, 3 μM fluvastatin + 7 μM itraconazole) was determined as 59.5%. Further, the inhibition at 49 µM in test [1] (Homo sapiens, SK-MEL-28, SKMEL-28 cells, fluvastatin 49 μM alone, read-out: maximal inhibition) is 27.8%; in test [2] (Homo sapiens, PANC-1, fluvastatin 49 μM alone, read-out: maximal inhibition) it was 59.9%; in test [3] (fluvastatin 49 μM alone, read-out: maximal inhibition), 58.3%; in test [4] (Homo sapiens, HCT-116, read-out: maximal inhibition, HCT116 cells, fluvastatin 49 μM alone), 93.1%. Also, the “reduction in the concentration of fluvastatin” value in test [1] (SKMEL-28 cells, 3 μM with 7 μM itraconazole vs 49 μM alone) is 16 fold; in test [4] (HCT116 cells, […] with 7 μM itraconazole vs 49 μM alone), 8 fold. For the same compound, in test [1] (Table 13: itraconazole 0.87 μM + fluvastatin at row conc. c1 (0-49 μM), 72 h), the “Percent inhibition of Alamar Blue Metabolism in SKMEL-28 cells” value came out at 35.4%. Also, the inhibition at 12 µM worked out at 56.8% in test [2] (Homo sapiens, PANC-1, 12 μM fluvastatin + 7 μM itraconazole); 40.3% in test [3] (12 μM fluvastatin + 14 μM itraconazole); 15.5% in test [3] (12 μM fluvastatin, absence of itraconazole). In addition, the inhibition at […] in test [4] (Homo sapiens, HCT-116, HCT116 cells, […] fluvastatin + 7 μM itraconazole) worked out at 91.9%.

On to `COCc1c(C(C)C)nc(C(C)C)c(/C=C/[C@@H](O)C[C@@H](O)CC(=O)O)c1-c1ccc(F)cc1` [cerivastatin], for which the “reduction in the concentration of cerivastatin” value in test [4] (HCT116 cells, […] with […] itraconazole vs 22 μM alone) was 8 fold. Besides, the inhibition at 22 µM was 85.5% in test [4] (Homo sapiens, HCT-116, read-out: Percent inhibition of Alamar Blue Metabolism, cerivastatin 22 μM, itraconazole 0 μM) and 85.5% in test [4] (Homo sapiens, HCT-116, read-out: maximal inhibition, HCT116 cells, cerivastatin 22 μM alone).

For `CCC(C)(C)C(=O)O[C@H]1C[C@@H](C)C=C2C=C[C@H](C)[C@H](CC[C@@H]3C[C@@H](O)CC(=O)O3)[C@H]21` [Simvastatin, simvastatin], the reduction in simvastatin in test [1] (SKMEL-28 cells, 6 μM with 7 μM itraconazole vs 48 μM alone) is on record as 8 fold. Also, the “inhibition of cell proliferation” value in test [1] (SKMEL-28 cells, 9 μM statin + 7 μM itraconazole) is 61.8%. Besides, in test [1] (SKMEL-28 cells, 9 μM statin, absence of itraconazole), the inhibition is on record as 24.0%. In addition, the “simvastatin concentration required for nearly maximal inhibition” value in test [2] (setting [6]) and in test [5] (setting [6]) was 12 µM throughout. In addition, the “reduction in the concentration of simvastatin” value in test [5] (12 μM with 7 μM itraconazole vs 48 μM alone) worked out at 4 fold. For the same compound, the inhibition at 12 µM in test [4] (Homo sapiens, HCT-116, HCT116 cells, 12 μM simvastatin + 7 μM itraconazole) came out at 92.7%.

For the compound `Clc1ccc(COC(Cn2ccnc2)c2ccc(Cl)cc2Cl)cc1` (stereo not shown) [econazole], the inhibition at 0.4 µM in test [4] (Homo sapiens, HCT-116, read-out: Percent inhibition of Alamar Blue Metabolism, atorvastatin 0.0 μM, econazole 0.4 μM) stood at 0.7%. Moreover, in test [4] (Homo sapiens, HCT-116, read-out: Percent inhibition of Alamar Blue Metabolism, atorvastatin 0.0 μM, econazole 0.7 μM), the inhibition at 0.7 µM is -1.7%. Moreover, in test [4] (Homo sapiens, HCT-116, read-out: Percent inhibition of Alamar Blue Metabolism, atorvastatin 0.0 μM, econazole 2.8 μM), the inhibition at 2.8 µM amounted to 1.6%. In test [4] (Homo sapiens, HCT-116, read-out: Percent inhibition of Alamar Blue Metabolism, lovastatin 0.0 μM, econazole 0.4 μM), the inhibition at 0.4 µM amounted to 0.6%. Further, in test [4] (Homo sapiens, HCT-116, read-out: Percent inhibition of Alamar Blue Metabolism, lovastatin 0.0 μM, econazole 0.8 μM), the inhibition at 0.8 µM was 8.8%. Further, the inhibition at 3 µM in test [4] (Homo sapiens, HCT-116, read-out: Percent inhibition of Alamar Blue Metabolism, lovastatin 0.0 μM, econazole 3.0 μM) amounted to 23.9%. In test [4] (Homo sapiens, HCT-116, read-out: Percent inhibition of Alamar Blue Metabolism, lovastatin 0.0 μM, econazole 6.0 μM), the inhibition at 6 µM came out at 36.7%. Moreover, in test [4] (Homo sapiens, HCT-116, read-out: Percent inhibition of Alamar Blue Metabolism, lovastatin 0.0 μM, econazole 48.0 μM), the inhibition at 48 µM was found to be 96.1%. In addition, in test [4] (setting [7]), the inhibition at 12 µM turned out to be 57.2%, the inhibition at 24 µM was 78.6% and the inhibition at […] was found to be 14.9%. Besides, the inhibition at 36 µM in test [4] (Homo sapiens, HCT-116, read-out: maximal inhibition, HCT116 cells, 36 μM alone (Example 18)) came to 83.1%.

For `CC(C)N1CCN(c2ccc(OCC3COC(Cn4cncn4)(c4ccc(Cl)cc4Cl)O3)cc2)CC1` (stereo not shown) [terconazole], the inhibition at 19 µM in test [4] (Homo sapiens, HCT-116, read-out: Percent inhibition of Alamar Blue Metabolism, atorvastatin 0 μM, terconazole 19 μM) was found to be 38.4%. Also, the inhibition at 38 µM in test [4] (Homo sapiens, HCT-116, read-out: Percent inhibition of Alamar Blue Metabolism, atorvastatin 0 μM, terconazole 38 μM) was 94.8%.

For the compound `CC[C@H](C)C(=O)O[C@H]1C[C@@H](C)C=C2C=C[C@H](C)[C@H](CC[C@@H]3C[C@@H](O)CC(=O)O3)[C@H]21` [Lovastatin, lovastatin], the “reduction in the concentration of lovastatin” value in test [4] (HCT116 cells, 6 μM with […] itraconazole vs 48 μM alone) is recorded as 8 fold. For the same compound, the inhibition at 6 µM was found to be 70.1% in test [4] (Homo sapiens, HCT-116, HCT116 cells, 6.0 μM lovastatin + 9.0 μM tioconazole); 83.4% in test [4] (Homo sapiens, HCT-116, HCT116 cells, 6 μM lovastatin + […] itraconazole); 46.1% in test [4] (Homo sapiens, HCT-116, read-out: Percent inhibition of Alamar Blue Metabolism, tioconazole 0.0 μM, lovastatin 6.0 μM). In addition, the inhibition at 18 µM in test [4] (Homo sapiens, HCT-116, HCT116 cells, 18 μM lovastatin + […] econazole) was 84.5%; in test [4] (setting [8]) it was 41.3%. Besides, the inhibition at 0.3 µM in test [4] (Homo sapiens, HCT-116, read-out: Percent inhibition of Alamar Blue Metabolism, lovastatin 0.3 μM, econazole 0.0 μM) came to 10.5%. Further, the inhibition at 0.6 µM in test [4] (Homo sapiens, HCT-116, read-out: Percent inhibition of Alamar Blue Metabolism, lovastatin 0.6 μM, econazole 0.0 μM) was 5.4%. For the same compound, the inhibition at 9 µM in test [4] (Homo sapiens, HCT-116, read-out: Percent inhibition of Alamar Blue Metabolism, lovastatin 9.0 μM, econazole 0.0 μM) was 27.3%. Besides, the inhibition at 36 µM was found to be 95.6% in test [4] (setting [8]) and 95.6% in test [4] (Homo sapiens, HCT-116, read-out: maximal inhibition, HCT116 cells, lovastatin 36 μM alone (Example 20)). The inhibition at 0.2 µM in test [4] (Homo sapiens, HCT-116, read-out: Percent inhibition of Alamar Blue Metabolism, tioconazole 0.0 μM, lovastatin 0.2 μM) was 9.8%. In addition, in test [4] (Homo sapiens, HCT-116, read-out: Percent inhibition of Alamar Blue Metabolism, tioconazole 0.0 μM, lovastatin 0.4 μM), the inhibition at 0.4 µM amounted to 23.1%. The inhibition at 0.8 µM in test [4] (Homo sapiens, HCT-116, read-out: Percent inhibition of Alamar Blue Metabolism, tioconazole 0.0 μM, lovastatin 0.8 μM) is 12.3%. The inhibition at 3 µM in test [4] (Homo sapiens, HCT-116, read-out: Percent inhibition of Alamar Blue Metabolism, tioconazole 0.0 μM, lovastatin 3.0 μM) was determined as 29.9%. The inhibition at 12 µM in test [4] (setting [9]) was 50%. Besides, the inhibition at 24 µM worked out at 61.9% in test [4] (setting [9]) and 61.9% in test [4] (Homo sapiens, HCT-116, read-out: maximal inhibition, HCT116 cells, lovastatin 24 μM alone (Example 22)). The inhibition at […] in test [4] (setting [9]) stood at 32.2%. In test [4] (Homo sapiens, HCT-116, read-out: maximal inhibition, HCT116 cells, lovastatin 48 μM alone (Example 14)), the inhibition at 48 µM is 55%. In addition, the “Percent inhibition of Alamar Blue Metabolism in HCT116 cells” value in test [4] (Table 14: itraconazole 14 μM + lovastatin at row conc. c1 (0-48 μM), 72 h) was determined as 88.9%.

Turning to `Clc1ccc(C(Cn2ccnc2)OCc2ccsc2Cl)c(Cl)c1` (stereo not shown) [tioconazole], the inhibition at 0.3 µM in test [4] (Homo sapiens, HCT-116, read-out: Percent inhibition of Alamar Blue Metabolism, tioconazole 0.3 μM, lovastatin 0.0 μM) stood at 8.6%. Moreover, the inhibition at 0.6 µM in test [4] (Homo sapiens, HCT-116, read-out: Percent inhibition of Alamar Blue Metabolism, tioconazole 0.6 μM, lovastatin 0.0 μM) was 3.7%. Further, in test [4] (Homo sapiens, HCT-116, read-out: Percent inhibition of Alamar Blue Metabolism, tioconazole 9.0 μM, lovastatin 0.0 μM), the inhibition at 9 µM amounted to 19.8%. In test [4] (setting [10]), the inhibition at 18 µM was determined as 26.8% and the inhibition at 36 µM is 41.3%.

Regarding `CC[C@H](C)C(=O)O[C@H]1C[C@@H](C)C=C2C=C[C@H](C)[C@H](CCC(O)C[C@@H](O)CC(=O)O)[C@H]21` (stereo partly shown) [lovastatin sodium], the “reduction in the concentration of lovastatin” value in test [4] (HCT116 cells, 2.8 μM with 7 μM itraconazole vs 22 μM alone) was 8 fold. Also, the inhibition at 2.8 µM in test [4] (Homo sapiens, HCT-116, HCT116 cells, 2.8 μM lovastatin sodium + 7 μM itraconazole) turned out to be 82%. Besides, the inhibition at 22 µM in test [4] (Homo sapiens, HCT-116, read-out: maximal inhibition, HCT116 cells, lovastatin sodium 22 μM alone) is 58.9%.

On to `Clc1ccccc1C(c1ccccc1)(c1ccccc1)n1ccnc1` [clotrimazole], for which, in test [4] (Homo sapiens, HCT-116, read-out: Percent inhibition of Alamar Blue Metabolism, atorvastatin 0.0 μM, clotrimazole 0.5 μM), the inhibition at 0.5 µM came to 25.9%. The inhibition at 0.9 µM in test [4] (Homo sapiens, HCT-116, read-out: Percent inhibition of Alamar Blue Metabolism, atorvastatin 0.0 μM, clotrimazole 0.9 μM) came to 35.8%.
